The values that follow come from PMC7642415, “Perturbed structural dynamics underlie inhibition and altered efflux of the multidrug resistance pump AcrB” (Nature Communications, 2020).

For assay [1], the target named is T1, AcrB (Escherichia coli, UniProt P31224).
T1 construct: full-length AcrB with C-terminal 6xHis tag, in DDM micelles
As to the kind of experiment: differential HDX-MS on purified AcrB WT. The format is binding.

Assay [2] addresses T2, AcrB (Escherichia coli, UniProt P31224, G288D).
T2 construct: full-length AcrB with C-terminal 6xHis tag, in DDM micelles
The format is binding.

Where a SMILES comes first, the peptide text is derived from it.

T2 sequence (P31224 whole entry G288D): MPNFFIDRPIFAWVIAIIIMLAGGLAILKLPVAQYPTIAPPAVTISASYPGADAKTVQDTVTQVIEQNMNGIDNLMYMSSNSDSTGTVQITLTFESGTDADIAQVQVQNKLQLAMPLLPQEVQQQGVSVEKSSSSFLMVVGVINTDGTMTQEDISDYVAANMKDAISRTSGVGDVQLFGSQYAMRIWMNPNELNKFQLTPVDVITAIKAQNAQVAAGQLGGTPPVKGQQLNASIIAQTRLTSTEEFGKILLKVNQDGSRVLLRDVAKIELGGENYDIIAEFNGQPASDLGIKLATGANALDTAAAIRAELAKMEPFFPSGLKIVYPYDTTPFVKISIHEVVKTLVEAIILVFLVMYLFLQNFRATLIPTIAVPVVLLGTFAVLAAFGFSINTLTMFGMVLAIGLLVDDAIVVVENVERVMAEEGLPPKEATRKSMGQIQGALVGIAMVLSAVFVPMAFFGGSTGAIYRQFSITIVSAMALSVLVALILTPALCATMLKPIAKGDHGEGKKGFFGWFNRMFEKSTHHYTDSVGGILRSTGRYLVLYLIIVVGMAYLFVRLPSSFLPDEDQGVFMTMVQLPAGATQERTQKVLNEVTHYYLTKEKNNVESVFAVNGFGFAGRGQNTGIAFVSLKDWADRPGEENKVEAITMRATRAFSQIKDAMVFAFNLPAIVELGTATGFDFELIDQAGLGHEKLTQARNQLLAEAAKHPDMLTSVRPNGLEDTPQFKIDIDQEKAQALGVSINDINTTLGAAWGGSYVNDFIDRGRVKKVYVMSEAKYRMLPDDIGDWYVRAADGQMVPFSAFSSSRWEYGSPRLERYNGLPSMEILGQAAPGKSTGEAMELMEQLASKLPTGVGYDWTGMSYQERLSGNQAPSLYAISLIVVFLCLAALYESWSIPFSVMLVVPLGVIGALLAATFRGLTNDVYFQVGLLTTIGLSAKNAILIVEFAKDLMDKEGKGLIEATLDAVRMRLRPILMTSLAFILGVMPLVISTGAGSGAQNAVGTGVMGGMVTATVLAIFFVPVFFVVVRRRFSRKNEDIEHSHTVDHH
T1 sequence (P31224 whole entry): as the sequence (P31224 whole entry G288D) above, with D288G counted along it

Consider `NC(N)=NCCC[C@H](NC(=O)[C@@H](N)Cc1ccccc1)C(=O)Nc1ccc2ccccc2c1` [PAβN, phenylalanine-arginine-β-naphthylamide] (HELM PEPTIDE1{F.R.[c1ccc2cc(N[*:1])ccc2c1]}$$$$V2.0), for which, in assay [1], the “differential HDX-MS on purified AcrB WT” value is “inhibitor binding led to HDX reduction throughout extensive parts of the PC1/PC2 cleft of the drug-binding pockets”. In assay [2], the “differential HDX-MS on purified AcrB G288D” value is “Upon substrate binding, PAβN caused reduced HDX within the PC1/PC2 regions for AcrB^G288D”.
